# Measured values published in US9745267B2, “Compounds as modulators of RORC” (Boehringer Ingelheim International GmbH, priority 2013, dated 2017).
# Target: T1, RORγt (hRORC LBD) (Homo sapiens, UniProt P51449)
# T1 construct: expressed in transfected cells; host or cells: HEK 293 (transient cotransfection with pGL4.3 luc2P/GAL4UAS/Hygro reporter)
# T1 sequence (P51449 269-508 limits assumed): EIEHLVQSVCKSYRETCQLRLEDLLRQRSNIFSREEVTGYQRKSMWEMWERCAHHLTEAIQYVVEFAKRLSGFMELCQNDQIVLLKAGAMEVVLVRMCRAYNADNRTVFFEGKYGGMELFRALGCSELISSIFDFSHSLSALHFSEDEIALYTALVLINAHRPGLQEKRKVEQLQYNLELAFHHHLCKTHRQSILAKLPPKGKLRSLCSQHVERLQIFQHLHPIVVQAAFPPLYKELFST
# Experiment: RGA Assay: nuclear receptor transactivation assay, RORγt transactivation of a luciferase reporter
# Format: cell-based
# Settings: transiently transfected HEK 293 cells, Gal4DBD hRORC LBD, 20-24 hours incubation
# Procedure: A nuclear receptor transactivation assay was performed to quantitate the ability of test compounds to inhibit RORγt transactivation of a luciferase reporter. A similar assay is described in: Khan et al., Bioorganic & Medicinal Chemistry Letters 23 (2013), 532-536. The system uses transiently transfected HEK 293 cells cotransfected with two plasmids (pGL4.3, luc2P/GAL4UAS/Hygro, and pBIND, Gal4DBD hRORC LBD1-3). The positive control is co-transiently transfected with both plasmids, and the negative control contains the pGL4.3 promoter sequence. Assays were assembled in 384 well plates where transiently transfected cells and test compound at varying concentrations were incubated for 20-24 hours. The next day, assays plates are taken out and equilibrated at RT for 20-30 minutes. Bright-Glo™ Luciferase Assay System is used to detect Luciferase production. After addition of Bright GLO detection reagent, the plates were incubated at RT for 20 minutes. The plates were read on an Envision plate reader to measure luminescence signal. The RLU signal is converted to POC relative to control and blank wells.
# Compound Dilution Buffer:
# Bright Glo Luciferase Assay System: Promega #E2620
# Thaw lysis buffer provided in kit, add 100 mL lysis buffer to substrate powder.
row,Structure (SMILES),IC50 [nM]
1,CCC1(C2CC2)CN(C(=O)NCc2ccc(S(=O)(=O)CC)cc2)c2ccc(-c3c(OC)ncnc3C3CC3)cc21 (stereo not shown) [Example 118],470
2,CCS(=O)(=O)c1ccc(CNC(=O)N2CC(C)(C3CC3)c3cc(-c4c(OC)ncnc4C4CC4)ccc32)cc1 (stereo not shown) [Example 120],280
3,CCS(=O)(=O)c1ccc(CNC(=O)N2CC3(CCCC3)c3cc(-c4c(OC)ncnc4OC)ccc32)cc1 [Example 121],600
4,CCS(=O)(=O)c1ccc(CNC(=O)N2CC3(CC3)c3cc(-c4c(OC)ncnc4C4CC4)ccc32)cc1 [Example 125],1100
5,CCS(=O)(=O)c1ccc(CNC(=O)N2C[C@@](C)(C3CC3)c3cc(-c4c(OC)ncnc4C4CC4)ccc32)cc1 [Example 126],400
6,CCS(=O)(=O)c1ccc(CNC(=O)N2C[C@](C)(C3CC3)c3cc(-c4c(OC)ncnc4C4CC4)ccc32)cc1 [Example 127],500
7,CCS(=O)(=O)c1ccc(CNC(=O)N2CC3(CCC3)c3cc(-c4c(OC)ncnc4C4CC4)ccc32)cc1 [Example 128],210
8,CCS(=O)(=O)c1ccc(CNC(=O)N2CC3(CCC3)c3cc(-c4c(OC)ncnc4C4CC4)ccc32)nc1 [Example 129],370

# Second part, the compound after the results:
row,IC50 [nM],Structure (SMILES)
1,320,CCS(=O)(=O)c1ccc(CNC(=O)N2CC3(CCCC3)c3cc(-c4cnc(N(C)C)nc4C4CC4)ccc32)cc1 [Example 119]
2,1100,CCS(=O)(=O)c1ccc(CNC(=O)N2CC3(CCCC3)c3cc(-c4c(OC)nc(C)nc4C4CC4)ccc32)cc1 [Example 122]
3,600,CCS(=O)(=O)c1ccc(CNC(=O)N2CC3(CCCC3)c3cc(-c4cc(CN5CCC(C#N)CC5)ccc4C)ccc32)cc1 [Example 123]
4,1400,CCS(=O)(=O)c1ccc(CNC(=O)N2CC3(CCCC3)c3cc(-c4cc(CN5CCS(=O)(=O)CC5)ccc4C)ccc32)cc1 [Example 124]
5,310,CCS(=O)(=O)c1ccc(CNC(=O)N2CC3(CCCC3)c3cc(-c4c(OC)nc(N(C)C)nc4C4CC4)ccc32)cc1 [Example 130]
